Results published in publication PMC8315922, “In Vitro Identification and In Vivo Confirmation of Inhibitors for Sweet Potato Chlorotic Stunt Virus RNA Silencing Suppressor, a Viral RNase III” (Journal of Virology, 2021).
Like-named read-outs stand apart in the source and are kept apart here.

Assays:
[1] = target: T1, CSR3 (RNase III of SPCSV) (Sweet potato chlorotic stunt virus, UniProt Q8JJW8); assay: Kinetic-based HTS (FRET, labeled 22-bp siRNA cleavage), one concentration; assay type: biochemical; details: compound 10 μM, 375 nM siRNA, 37°C
Description: Based on the catalytic activity of CSR3 on 22-bp siRNA, our kinetic-based HTS assay was designed using distance-dependent FRET technology. Specifically, one strand of siRNA, as a substrate, was labeled with a fluorescent dye (6-carboxyfluorescein [FAM]) at the 5′ end and a quencher (black hole quencher 1 [BHQ1]) at the 3′ end. The initial reaction rate of CSR3 was quantified using the slope of raw fluorescence under an excitation/emission spectrum at 485/520 nm (Fig. 3A). […] In this study, a total of 6,622 compounds (including 6,400 selected from Glide docking and 222 empirically selected compounds for preliminary assay setup) were screened using kinetic-based HTS at a final concentration of 10 μM. All 384-well screening plates contained 32 negative (with CSR3 [i.e., the substrate was successfully cleaved]) and 32 positive (without CSR3 [i.e., the substrate remained intact]) control reaction mixtures. To evaluate the quality of the HTS assay, the Z-factor (Z′) parameter was calculated using the reaction rates of the positive and negative controls ([30]). […]
The HTS assay was designed based on FRET using a 22-bp siRNA (forward sequence, […]; reverse sequence, […]) with a 2-nucleotide (nt) 3′ overhang labeled with the fluorescent dye 6-carboxyfluorescein (FAM) and a black hole quencher (BHQ1) on the sense strand (Metabion, Munich, Germany). […] The plates were read with a PHERAstar FS reader (BMG Labtech, Ortenberg, Germany).
(§1) For HTS, the activity of CSR3 was calculated by measuring the change in fluorescence as a function of the reaction time using MARS Data Analysis software (BMG Labtech). To evaluate the CSR3 inhibition efficiency of individual compounds, the PI of each compound was calculated using the slope values for the sample, positive control, and negative control according to the following equation: PI = 100 × [1 − (sample − positive)/(negative − positive)]%. IC50 and DSS values were calculated using concentration-specific PI values according to a previous study ([31]). Relative gene expression was calculated using the classical 2^−ΔΔ^CT method ([63]).

[2] = target: T2, CSR3 (Sweet potato chlorotic stunt virus, UniProt Q8JJW8); assay: Binding affinity assay using MST; details: Table S4
T2 sequence (Q8JJW8 1-228): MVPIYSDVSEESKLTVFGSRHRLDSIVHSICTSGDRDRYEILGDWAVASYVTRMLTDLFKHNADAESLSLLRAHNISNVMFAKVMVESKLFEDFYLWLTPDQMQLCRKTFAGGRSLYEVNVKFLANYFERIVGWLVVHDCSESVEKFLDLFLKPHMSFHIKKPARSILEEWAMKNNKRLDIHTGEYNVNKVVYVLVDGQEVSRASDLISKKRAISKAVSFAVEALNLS
Procedure: (§2) Binding affinity assays were first carried out with the 99 commercial compounds using the MST method.
The labeled-protein solution containing 500 nM proteins and 40 nM dye was prepared in PBS buffer with 2% dimethyl sulfoxide (DMSO) for the assay. The 12 concentrations for each compound were obtained by 2-fold serial dilutions (0.2 μM to 400 μM). […] Two independent experiments were carried out in premium coated capillaries (NanoTemper, Munich, Germany) using a Monolith NT.Automated instrument (NanoTemper) with the power set at high (80%), the light-emitting diode (LED) power (pico red) set at 5%, and the on-time set at 20 s. The dissociation constant (Kd) was determined using the MO.Affinity Analysis program (NanoTemper).

[3] = target: T2, CSR3; assay: Binding affinity assay using SPR; details: SPR dose-response 3 μM to 200 μM, 25°C; unit inferred, numbers match M (cf. Fig 5A); read-out: Steady State Affinity
Procedure: as §2
CSR3 was purified as described above and stored in PBS buffer. SPR was performed on a BiacoreT100 instrument (GE Healthcare) using a sensor S CM5 chip (GE Healthcare). CSR3 (10 ng/μl) was immobilized using the standard amine-coupling method according to the manufacturer’s instructions with immobilization buffer (10 mM sodium acetate [pH 4]); the final response unit (RU) value was 11,459. Compounds at a single concentration (100 μM) or consisting of 2-fold serial dilutions (3 μM to 200 μM) were flowed over the sensor surface using PBS buffer with 0.01 M HEPES, 0.05% surfactant P20, and 2% DMSO. […] To eliminate bulk interference by DMSO, a solvent correction consisting of DMSO at concentrations ranging from 1.5% to 2.8% was carried out for every 30 samples. Steady-state affinity (KD) values were determined using BiacoreT100 Evaluation software, v.2.04 (GE Healthcare).

[4] = target: T1, CSR3 (RNase III of SPCSV); assay: Kinetic-based FRET dose-response assay (IC50, DSS); assay type: biochemical; details: for IC50: 1.25 nM to 50 μM, unit inferred
Procedure: A dose-response assay with six concentrations (1.25 nM to 50 μM) was carried out in three independent experiments, which included two tests with the 112 selected FIMM compounds (i.e., compounds prepared by the HTB-FIMM) and one test using the newly ordered commercial compounds (99 of the 112 compounds, i.e., compounds prepared by a second supplier). A dose-response curve was generated for each compound based on PI values as a function of the concentration.
The HTS assay was designed based on FRET using a 22-bp siRNA (forward sequence, […]; reverse sequence, […]) with a 2-nucleotide (nt) 3′ overhang labeled with the fluorescent dye 6-carboxyfluorescein (FAM) and a black hole quencher (BHQ1) on the sense strand (Metabion, Munich, Germany). Screening was initially carried out at one concentration (10 μM) in a 20-μl reaction buffer. […] All reaction mixtures contained 50 nM CSR3 and 375 nM labeled siRNA in 384-well black flat-bottom microplates (Corning, NY, USA) and were prepared using a BioTek MultiFlo FX dispenser with single-channel random access dispenser cassettes (BioTek, Winooski, VT, USA). The plates were read with a PHERAstar FS reader (BMG Labtech, Ortenberg, Germany).
as §1

[5] = target: RNase III of Sweet potato chlorotic stunt virus (CSR3), His-tagged full-length (Sweet potato chlorotic stunt virus (SPCSV)); assay: native gel or EMSA; native Western blotting of purified CSR3, detected with rabbit polyclonal antibodies against CSR3; monomer to dimer

Molecule	PI values (percentage of inhibition) [1] [%]	Binding (Yes/No) ([2]; MST binding call)	Response Amplitude ([2]; MST response amplitude)	Kd [3] [µM]	DSS Comm 1 ([4]; drug sensitivity score, repeat Comm 1)	DSS FIMM1 ([4]; drug sensitivity score, repeat FIMM 1)	DSS FIMM 2 ([4]; drug sensitivity score, repeat FIMM 2)	IC50 ([4]; repeat Comm 1 (commercial compounds), numbers match nM, read-out: IC50 Comm 1) [nM]	IC50 ([4]; repeat FIMM 1 (FIMM library compounds), numbers match nM (cf. Fig 5A), read-out: IC50 FIMM1) [nM]	IC50 ([4]; repeat FIMM 2 (FIMM library compounds), numbers match nM, read-out: IC50 FIMM 2) [nM]	stoichiometry N [5]
Cc1ccc(C)c(C(=O)CSc2nnc[nH]2)c1 [FIMM027745]	98.0616	No	0	13	1.9	19.2	16.7	14900	647	1120	
RNase III of Sweet potato chlorotic stunt virus (CSR3), His-tagged full-length (enzyme)											2
